Assay results reported in ChEMBL document CHEMBL3885881, “DrugMatrix”.

Organism: Rattus norvegicus
Experiment: DrugMatrix - Regimen: Daily Repeat
Format: toxicity, organism-based, Sprague-Dawley
Parameters: regimen Daily Repeat, gender Male, age 6-8 weeks
Details: in vivo, po, route oral GAVAGE, […]; for ABSOLUTE BASOPHIL / ABSOLUTE EOSINOPHIL / ABSOLUTE LYMPHOCYTE / ABSOLUTE MONOCYTE / ABSOLUTE SEGMENTED NEUTROPHIL / BASOPHIL / EOSINOPHIL / ERYTHROCYTE COUNT / HEMATOCRIT / HEMOGLOBIN / LEUKOCYTE COUNT / LYMPHOCYTE / MEAN CORPUSCULAR HEMOGLOBIN / MEAN CORPUSCULAR HEMOGLOBIN CONCENTRATION / MEAN CORPUSCULAR VOLUME / MONOCYTE / NEUTROPHIL / NUCLEATED RED BLOOD CELLS / PLATELET COUNT: tissue Blood; for ALANINE AMINOTRANSFERASE / ALBUMIN / ALKALINE PHOSPHATASE / ASPARTATE AMINOTRANSFERASE / BLOOD UREA NITROGEN / CARBON DIOXIDE / CHLORIDE / CHOLESTEROL / CREATINE PHOSPHOKINASE / CREATININE / GLUCOSE / LACTATE DEHYDROGENASE / LIPASE / PHOSPHORUS / POTASSIUM / SODIUM / TOTAL BILIRUBIN / TOTAL PROTEIN / URIC ACID: tissue Plasma
[1] = 30 mg/kg, 120 h, dose level Low, time 5 day
[2] = 60 mg/kg, 72 h, dose level High, time 3 day
[3] = 60 mg/kg, 120 h, dose level High, time 5 day

## Cc1oncc1C(=O)Nc1ccc(C(F)(F)F)cc1 [LEFLUNOMIDE]
[1]
  ABSOLUTE BASOPHIL: 0 CELLS/uL
  ABSOLUTE EOSINOPHIL: 25.33 CELLS/uL
  ABSOLUTE LYMPHOCYTE: 6685.33 CELLS/uL
  ABSOLUTE MONOCYTE: 149.33 CELLS/uL
  ABSOLUTE SEGMENTED NEUTROPHIL: 606.67 CELLS/uL
  BASOPHIL: 0%
  EOSINOPHIL: 0.33%
  ERYTHROCYTE COUNT: 4.69 x10E6/uL
  HEMATOCRIT: 30.27%
  HEMOGLOBIN: 11.73 G/DL
  LEUKOCYTE COUNT: 7.47 x10E3/uL
  LYMPHOCYTE: 89.33%
  MEAN CORPUSCULAR HEMOGLOBIN: 25.03 pg
  MEAN CORPUSCULAR HEMOGLOBIN CONCENTRATION: 38.77 G/DL
  MEAN CORPUSCULAR VOLUME: 64.57 fL
  MONOCYTE: 2%
  NEUTROPHIL: 8.33%
  NUCLEATED RED BLOOD CELLS: 0 /100WBC
  PLATELET COUNT: 507.67 x10E3/uL
  ALANINE AMINOTRANSFERASE: 47.33 u/L
  ALBUMIN: 3.93 G/DL
  ALKALINE PHOSPHATASE: 195.67 u/L
  ASPARTATE AMINOTRANSFERASE: 69.33 u/L
  BLOOD UREA NITROGEN: 12.67 mg/dL
  CARBON DIOXIDE: 34 mmol/L
  CHLORIDE: 103 MEQ/L
  CHOLESTEROL: 104.33 mg/dL
  CREATINE PHOSPHOKINASE: 179 u/L
  CREATININE: 0.11 mg/dL
  GLUCOSE: 152.67 mg/dL
  LACTATE DEHYDROGENASE: 60 u/L
  LIPASE: 11.67 u/L
  PHOSPHORUS: 12.6 mg/dL
  POTASSIUM: 5.71 MEQ/L
  SODIUM: 146.27 MEQ/L
  TOTAL BILIRUBIN: 0.1 mg/dL
  TOTAL PROTEIN: 5.9 G/DL
  URIC ACID: 0.27 mg/dL
[2]
  ABSOLUTE BASOPHIL: 0 CELLS/uL
  ABSOLUTE EOSINOPHIL: 0 CELLS/uL
  ABSOLUTE LYMPHOCYTE: 5003.33 CELLS/uL
  ABSOLUTE MONOCYTE: 42.67 CELLS/uL
  ABSOLUTE SEGMENTED NEUTROPHIL: 720.67 CELLS/uL
  BASOPHIL: 0%
  EOSINOPHIL: 0%
  ERYTHROCYTE COUNT: 5.59 x10E6/uL
  HEMATOCRIT: 34.57%
  HEMOGLOBIN: 13.67 G/DL
  LEUKOCYTE COUNT: 5.77 x10E3/uL
  LYMPHOCYTE: 89%
  MEAN CORPUSCULAR HEMOGLOBIN: 24.5 pg
  MEAN CORPUSCULAR HEMOGLOBIN CONCENTRATION: 39.53 G/DL
  MEAN CORPUSCULAR VOLUME: 61.87 fL
  MONOCYTE: 0.67%
  NEUTROPHIL: 10.33%
  NUCLEATED RED BLOOD CELLS: 0 /100WBC
  PLATELET COUNT: 824 x10E3/uL
  ALANINE AMINOTRANSFERASE: 39.67 u/L
  ALBUMIN: 3.1 G/DL
  ALKALINE PHOSPHATASE: 225.67 u/L
  ASPARTATE AMINOTRANSFERASE: 100.33 u/L
  BLOOD UREA NITROGEN: 14 mg/dL
  CARBON DIOXIDE: 30 mmol/L
  CHLORIDE: 98.67 MEQ/L
  CHOLESTEROL: 115.33 mg/dL
  CREATINE PHOSPHOKINASE: 296.67 u/L
  CREATININE: 0.11 mg/dL
  GLUCOSE: 170 mg/dL
  LACTATE DEHYDROGENASE: 93.67 u/L
  LIPASE: 11.33 u/L
  PHOSPHORUS: 10.73 mg/dL
  POTASSIUM: 4.3 MEQ/L
  SODIUM: 142.97 MEQ/L
  TOTAL BILIRUBIN: 0.17 mg/dL
  TOTAL PROTEIN: 4.97 G/DL
  URIC ACID: 0.43 mg/dL
[3]
  ABSOLUTE BASOPHIL: 0 CELLS/uL
  ABSOLUTE EOSINOPHIL: 23 CELLS/uL
  ABSOLUTE LYMPHOCYTE: 3653 CELLS/uL
  ABSOLUTE MONOCYTE: 48 CELLS/uL
  ABSOLUTE SEGMENTED NEUTROPHIL: 376 CELLS/uL
  BASOPHIL: 0%
  EOSINOPHIL: 0.67%
  ERYTHROCYTE COUNT: 6.19 x10E6/uL
  HEMATOCRIT: 39%
  HEMOGLOBIN: 15.23 G/DL
  LEUKOCYTE COUNT: 4.1 x10E3/uL
  LYMPHOCYTE: 89.33%
  MEAN CORPUSCULAR HEMOGLOBIN: 24.77 pg
  MEAN CORPUSCULAR HEMOGLOBIN CONCENTRATION: 39.07 G/DL
  MEAN CORPUSCULAR VOLUME: 63.4 fL
  MONOCYTE: 1.33%
  NEUTROPHIL: 8.67%
  NUCLEATED RED BLOOD CELLS: 0 /100WBC
  PLATELET COUNT: 441.33 x10E3/uL
  ALANINE AMINOTRANSFERASE: 25.67 u/L
  ALBUMIN: 3.73 G/DL
  ALKALINE PHOSPHATASE: 203 u/L
  ASPARTATE AMINOTRANSFERASE: 75.67 u/L
  BLOOD UREA NITROGEN: 64.67 mg/dL
  CARBON DIOXIDE: 24.33 mmol/L
  CHLORIDE: 98.5 MEQ/L
  CHOLESTEROL: 138.67 mg/dL
  CREATINE PHOSPHOKINASE: 227.67 u/L
  CREATININE: 0.33 mg/dL
  GLUCOSE: 145.67 mg/dL
  LACTATE DEHYDROGENASE: 137 u/L
  LIPASE: 22.67 u/L
  PHOSPHORUS: 11.8 mg/dL
  POTASSIUM: 5.41 MEQ/L
  SODIUM: 137.7 MEQ/L
  TOTAL BILIRUBIN: 0.27 mg/dL
  TOTAL PROTEIN: 6.53 G/DL
  URIC ACID: 0.93 mg/dL
